This is an account of results in patent US20260256940A1, “MITOCHONDRIA AS A TARGETED DELIVERY PLATFORM” (cellvie AG, priority 2022, published 2026).

This data set has as its system heart of a pig. The settings on record: in vivo.

Experimental: Five milliliters of mitochondria-ssDNA suspension (ssDNA is fluorescently labeled with FAM, and the ssDNA oligo sequence 5′ to 3′ is [sequence]) in conjugation buffer (at a concentration of 1 mg/mL) were directly injected into the heart of the pig. After two hours, the pig was sacrificed, and a small piece of heart tissue where the injection had occurred was cut. The tissue was fixed using formaldehyde, and a histology cut was performed. The tissue was stained with DAPI and rhodamine phalloidin (Thermo Fisher Scientific) to visualize cell nuclei and F-actin networks, respectively. The FAM signal represents the ssDNA signal. A control experiment was prepared by directly injecting naked ssDNA.
An in vivo experiment was conducted to understand the stability of the mitochondria-ssDNA complex inside a tissue or organ after injection. Using a syringe, either the mitochondria-ssDNA complex or naked ssDNA (control) were directly injected into the heart of a pig. Two hours post-injection, the tissue was processed and fluorescently stained using DAPI and rhodamine phalloidin to stain cell nuclei and F-actins, respectively. The samples were analyzed using a fluorescence microscope to visualize nuclei, actin and the FAM-labeled ssDNA.

Take “naked ssDNA: FAM-labeled ssDNA, oligo sequence 5′ to 3′ GCAACAGTGAAGGAAAGCC, injected without mitochondria as control (FAM label, chemistry not fully specified; listed 3' to 5')”: the “ssDNA signal in heart tissue” value is “No ssDNA signal was observed”.
